The text below walks through data of US10426755B2, “Methods for inhibiting cancer cells” (Chang Gung Memorial Hospital, Chiayi, priority 2015, dated 2019).

The structures appear in SMILES notation. “Also recorded” adds a separate entry of the source.

Holding throughout (type): cell-based
For assay [1], the system named is breast cancer cell lines (MDA-MB-231, MCF-7 and tamoxifen-resistant MCF-7). Description: XTT proliferation assay, breast cancer cells. To be noted: 0, 5, 10 and 20 μM DT, 1-3 days, FIG. 3. How it is done:
(§1) The prostate cancer cells were plated at a density of 10^3 or 3×10^3 per well, in a 96-well plate, in a medium containing 10% Fetal bovine serum (FBS) (Gibco®, commercially available from Life Technologies, USA). Once the prostate cancer cells were attached to the culture dish, the 10% FBS medium was replaced with a second 10% FBS medium and each of the prostate cancer cell line was treated with 1, 5, and 10 μM of DT respectively for 1-2 days. The absorbance was measured using XTT assay kit (commercially available from Roche, Switzerland) at 492 nm using an ELISA reader (Bio-Rad Laboratories, USA).
An in vitro evaluation of the effect of DT on the breast cancer cells was performed. The breast cancer cell lines, MDA-MB-231, MCF-7 and tamoxifen-resistant MCF-7 breast cancer cells were obtained from Bioresource Collection and Research Center, Taiwan. The breast cancer cells were cultured in Eagle's Minimum Essential Medium containing 10% charcoal-stripped fetal bovine serum and plated according to the steps in Example 1 and each of the breast cancer cell line was treated with 0 (control), 5, 10 and 20 μM of DT, respectively for 1-3 days. The absorbance was measured using XTT assay kit at 492 nm using an ELISA reader.
On the technique in general: Tetrazolium assays rely on reduction of a dye to a coloured formazan, in cell work by metabolically active cells.

The test system of assay [2] is prostate cancer cells (metastatic DU145, PC3, 22RV1). Description: Cell invasion assay (transwell, Matrigel), prostate cancer cells. The settings on record: 5 or 10 μM DT, 3 days, vs control vehicle; FIG. 12 (a), (c), (e). How it is done: An in vitro evaluation of the effect of DT on lung cancer cells (A549 and chemotherapy resistant/metastatic H460), prostate cancer cells (metastatic DU145) and colorectal cancer cells (chemotherapy resistant HCT116) invasion and migration was performed, using cell invasion assay and cell migration assay.
(§2) Cell Invasion Assay: cells of interest were treated with a control vehicle, 5 or 10 μM of DT and incubated for 3 days. 1×10^5 cells were placed into the upper chamber of transwell plates (8 μm) with membranes pre-coated with 20% Matrigel and the bottom chamber contained 600 μL media supplemented with 10% fetal bovine serum (FBS). The cells migrated to the bottom of the chamber were fixed, stained and counted.

In assay [3] the test system is chemotherapy-resistant colorectal cancer cells (HCT116). Description: XTT proliferation assay, colorectal cancer cells. The settings on record: 1, 5 and 10 μM DT, 1-3 days, FIG. 5. How it is done:
as §1
An in vitro evaluation of the effect of DT on the chemotherapy-resistant colorectal cancer cells was performed. The chemotherapy-resistant colorectal cancer cells (HCT116) were obtained from Dr. K D Lee at Chang Gung Memorial Hospital, Chiayi, Taiwan. The colorectal cancer cells were cultured and plated according to the steps in Example 1 and treated with 0 (control), 1, 5 and 10 μM of DT, respectively for 1-3 days. The absorbance was measured using XTT assay kit at 492 nm using an ELISA reader.

Assay [4] has as its system lung cancer cell lines (A549 and chemotherapy-resistant/metastatic H460). The assay can be described thus: XTT proliferation assay, lung cancer cells. The settings on record: 1-2 days, FIG. 2. How it is done:
as §1, with “Laboratories, USA). An in vitro evaluation of the effect of DT, gemcitabine (a chemotherapeutic agent) and etoposide (a chemotherapeutic agent) on the lung cancer cells was performed. The lung cancer cell lines, chemotherapy-resistant/metastatic H460 lung cancer cells (with pleural metastasis) and A549 lung cancer cells, were purchased from Bioresource Collection and Research Center, Taiwan. […] The absorbance was measured using XTT assay kit at 492 nm using an ELISA reader.” for “Laboratories, USA).”

The subject of assay [5] is CCL2 in hormone therapy resistant and metastatic PC3 prostate cancer cells. Description: CCL2 ELISA of culture medium, PC3. The settings on record: 5 or 10 μM DT, 24 hours, vs DMSO, FIG. 14 (d). How it is done: (§3) It has been reported that increased CCL2 expression enhances cancer cell metastasis via macrophage recruitment. The effect of DT on CCL2 expression in RAW264.7 macrophages, THP1 monocytes and prostate cancer cells (metastatic DU145 and hormone therapy resistant and metastatic PC3) was examined by treating the cells with DMSO (control), 5 or 10 μM DT for 24 hours.
(§4) The culture medium was collected and the concentration of CCL2 was measured using ELISA assay.
(In general: An ELISA detects its analyte on a solid surface through an enzyme-linked reagent.)

In assay [6] the test system is skp2 and downstream genes in A549 and H460 lung cancer cells. Description: skp2 and downstream gene mRNA expression, lung cancer cells. To be noted: various concentrations of DT vs DMSO, FIG. 10 (c)-(f). How it is done: It has been reported that skp2 plays an important role in the metastasis of cancer cells. An in vitro evaluation of the effect of DT on prostate cancer cell metastasis was performed, by measuring the mRNA expression of skp2 in the following prostate cancer cell lines: meatstatic DU145 cells (Panels i-j of FIG. 9), hormone therapy resistant and metastatic PC3 cells (Panel h of FIG. 9), and 22RV1 cells (Panels k-l of FIG. 9), A549 lung cancer cells (Panels (c)-(e) of FIG. 10), chemotherapy-resistant/metastatic H460 lung cancer cells (Panels (d) and (f) of FIG. 10), HCT116 colon cancer cells (Panels (g) and (i) of FIG. 10) and MCF7-tamoxifen resistant breast cancer cells (Panels (h) and (j) of FIG. 10) […].
The cancer cells were treated with DMSO and various concentrations of DT.

Assay [7] has as its system CCL2 in RAW264.7 macrophages. Description: CCL2 ELISA of culture medium, RAW264.7 macrophages. The settings on record: 5 or 10 μM DT, 24 hours, vs DMSO, FIG. 14 (a). As to the method:
as §3, §4

For assay [8], the system named is prostate cancer cells (PC3, DU145 and 22RV1). Description: Prostate cancer cell invasion assay with DT-treated conditioned media. To be noted: 5-10 μM DT, 24 hours, results not shown. As to the method: as §2
As illustrated in Example 10, the production of CCL2 was inhibited by DT in both prostate cancer cells and macrophage, the effect of DT on monocyte/cancer cell co-culture and macrophage/cancer cell co-culture was examined using the invasion assay described in Example 9. • (a) THP1 monocytes, Raw264.7 macrophage, monocyte/prostate cancer co-culture and macrophage/prostate cancer co-culture were treated with a vehicle (DMSO), 5 or 10 μM DT for 24 hours, the cultured medium was collected and placed into the lower chamber of a transwell plate. • (b) Prostate cancer cells (PC3, DU145 and 22RV1) were placed in the cell invasion assay). The level of CCL2 in the invasion assay was measured by ELIZA method.

For the compound `Cc1cccc2c3c(ccc12)C(=O)C1=C(OCC1C)C3=O` (stereo not drawn) [DT, dihydroisotanshinone I], the “inhibition of breast cancer cells (proliferation)” value in assay [1] is “effective in inhibiting breast cancer cells, even for the tamoxifen-resistant MCF-7 breast cancer cells, in a dose dependent and time dependent fashion”. Moreover, the “prostate cancer cell motility (invasion assay)” value in assay [2] is “reduced the motility and migration of prostate cancer cells”. Also, the “inhibition of chemotherapy-resistant colorectal cancer cells” value in assay [3] was “effective in inhibiting chemotherapy-resistant colorectal cancer cells in a dose dependent manner”. For the same compound, in assay [4] (5, 10 and 20 μM DT, XTT), the “inhibition of lung cancer cells (proliferation)” value was “inhibits the lung cancer cells in a dose dependent fashion”. Further, the “inhibition of lung cancer proliferation, DT compared with gemcitabine and etoposide” value in assay [4] (DT 5, 10, 20 μM, gemcitabine hydrochloride and etoposide 10, 20 μM, regardless of the dosage, also H460) was “more effective than gemcitabine and etoposide in inhibiting lung cancer proliferation”. In addition, the “production of CCL2 in PC3 prostate cancer cells” value in assay [5] is “effectively inhibit the production of CCL2”. For the same compound, in assay [6], the “mRNA expression of skp2 and its downstream genes, lung cancer” value was “effectively inhibit mRNA expression of skp2 and its downstream genes; also recorded: reduces skps and its downstream genes, MMP2, MMP9 and E-cadherin”. Besides, the “production of CCL2 in macrophages” value in assay [7] was “effectively inhibit the production of CCL2”. For the same compound, the “migration of prostate cancer cells” value in assay [8] (DT-treated macrophage medium), in assay [8] (DT-treated macrophage/prostate cancer co-culture medium), in assay [8] (DT-treated monocyte medium) and in assay [8] (DT-treated monocyte/prostate cancer co-culture medium) was “significantly inhibit the migration of prostate cancer cells in a dose-dependent manner” each time.
